Where two headings read alike, the source gives them in different places.

The subject of data set [1] is alcoholics. As to the kind of experiment: CIWA-A withdrawal symptomatology before and after flumazenil in alcoholics. The class given is in vivo, human. An excerpt: (§1) 64 alcoholics (51 males and 13 females) voluntarily entered a treatment program to discontinue the use of alcohol. The patients were provided the appropriate information and the corresponding informed consent form was obtained from them. The patients were warned not to drink alcohol the morning on which the treatment was to be carried out to enable better evaluation of the withdrawal symptoms. Table 14 summarizes the characteristics of the patients treated associated with alcohol use.
(§2) Before starting the treatment, the patients underwent a complete medical and psychological examination. The monitoring of the patients throughout the morning included a complete blood count, a biochemical profile [creatinine, glucose, blood urea nitrogen (BUN), cholesterol (HDL and LDL), triglycerides, alkaline phosphatase, LDH (lactic dehydrogenase) and total proteins], hepatic function tests [GOT, GPT, GGT, bilirubin), electrocardiogram and, if need be, pregnancy test and x-ray examination. The exclusion criteria applied included acute or uncompensated illnesses, as well as the taking of any drug contraindicated with flumazenil. No patient was excluded after the pre-admission interview and the tests performed. Admission of one patient was postponed until their cardiac pathology was checked.
(§3) Before and after the administration of flumazenil, the withdrawal symptomatology was measured using the CIWA-A evaluation (Adinoff et al., Medical Toxicology 3:172-196 (1988)), as well as heart rate and blood pressure.
(§4) Flumazenil was administered at a dose of 0.2 mg every 3 minutes (up to a total of 2 mg/day). This quantity per dose was established to minimize the adverse side effects associated with withdrawal or interactions with other pharmaceuticals or psychopathologies.
(§5) Patients who presented marked anxiety were administered an additional dose of 192 mg of clomethiazole 30 minutes before administration of flumazenil.

Data set [2] has as its system alcoholics. As to the kind of experiment: Heart rate and blood pressure before and after flumazenil in alcoholics. In kind it is in vivo, human. More on the design: Heart rate: patients with a significant reduction / Diastolic blood pressure: patients with a significant reduction: concentration or dose not given beside the values.
Excerpt: as §1, §2, §3, §4, §5

For data set [3], the system named is alcoholics. As to the kind of experiment: Adverse events during flumazenil administration in alcoholics. In kind it is in vivo, human.
Excerpt: as §1, §4, §5

Data set [4] deals with alcoholics. As to the kind of experiment: Follow-up after flumazenil treatment programme (therapy, dropouts). The class given is in vivo, human. The protocol: Before discharge from the hospital, the following medications were prescribed: • Vitamin B complex: 1 month with one dose during breakfast and one dose during lunch. • Piracetam, or a medicament that is pharmacologically equivalent, 3 g for 1 week with one dose during breakfast and 800 mg for 1 month with one dose during breakfast and one dose during lunch; • Fluoxetine 20 mg for 2 months with one dose during breakfast; • Clomethiazole 192 mg for 1 week with one dose during breakfast and one dose during dinner and a subsequent elimination of dose during the second week; • Disulfuram 250 mg with one dose during breakfast.
As part of the treatment program, the patients were instructed to attend the outpatient treatment center for 9 months with decreasing frequency [once a week for the first three months, once every two weeks during the second three months, and once a month during the third three months].
Likewise, a semi-structured follow-up of cognitive behavior therapy was implemented. Individual and family psychotherapy was focused on 4 major interventions (cognitive restructuring, work therapy, prevention of relapse, and stress reduction) aimed at rehabilitating the social, family, work, personal and leisure life of the patient.
Table 16 statistically summarizes the results obtained before and after the treatment (at the end of 18 hours).

Data set [5] deals with alcoholics. As to the kind of experiment: Clinical observations during hospitalization (appetite, sleep, anxiety, desire to drink). In kind it is in vivo, human.
Excerpt: as §1, §4

For data set [6], the system named is alcoholics in the acute withdrawal phase. To be noted: 2 mg IV for 1 minute, 8 alcoholics, cited from earlier work.
Data set [7] relates to ethanol withdrawal syndrome. To be noted: cited from earlier work.
The conditions of data set [8]: excreted unchanged, not appreciably metabolized; cited from earlier work.
For data set [9] the following is noted: cited from earlier work.
Where [10] appears, read: after first administration, 55 patients.
Where [11] appears, read: after second administration, 58 patients.
Where [12] appears, read: after first administration, 53 patients.
Setting [13] is: after second administration, 55 patients.
Setting [14] is: after second administration, 56 patients.

In the case of `CCOC(=O)c1ncn2c1CN(C)C(=O)c1cc(F)ccc1-2` [flumazenil, ethyl 8-fluoro-5,6-dihydro-5-methyl-6-oxo-4H-imidazol[1,5-a][1,4]benzodiazepine-3-carboxylate], the “CIWA-A scoring: patients with a significant reduction” value in the data set on alcoholics [1] (after first administration of flumazenil (0.2 mg every 3 min up to 2 mg/day), 55 patients) stood at 47.3%. Moreover, in the data set with alcoholics [1] (setting [10]), the “CIWA-A scoring: patients with a significant increase” value was determined as 12.7% and the “CIWA-A scoring: patients with no change” value was 40.0%. Also, in the data set on alcoholics [1] (setting [11]), the “CIWA-A scoring: patients with a significant increase” value was 8.6%, the “CIWA-A scoring: patients with a significant reduction” value amounted to 36.2% and the “CIWA-A scoring: patients with no change” value came to 55.2%. Besides, in the data set with alcoholics [1] (after treatment (at the end of 18 hours), n=54, before treatment mean 4.13), the “CIWA-A mean after treatment” value was “.76”. In the data set on alcoholics [2] (setting [12]), the “Diastolic blood pressure: patients with a significant increase” value is recorded as 18.9%, the “Diastolic blood pressure: patients with a significant reduction” value is 34%, the “Diastolic blood pressure: patients with no change” value turned out to be 47.2% and the “Systolic blood pressure: patients with a significant increase” value was determined as 15.1%. Also, in the data set on alcoholics [2] (setting [12]), the “Systolic blood pressure: patients with a significant reduction” value turned out to be 47.2% and the “Systolic blood pressure: patients with no change” value was found to be 37.7%. Besides, in the data set on alcoholics [2] (setting [10]), the “Heart rate: patients with a significant increase” value was 9.1%, the “Heart rate: patients with a significant reduction” value is 50.9% and the “Heart rate: patients with no change” value is reported as 40.0%. In the data set on alcoholics [2] (setting [13]), the “Heart rate: patients with a significant reduction” value is reported as 41.8% and the “Heart rate: patients with no change” value came out at 58.2%. Besides, in the data set with alcoholics [2] (setting [14]), the “Diastolic blood pressure: patients with a significant increase” value is recorded as 19.6%, the “Diastolic blood pressure: patients with a significant reduction” value came out at 28.6%, the “Diastolic blood pressure: patients with no change” value was 51.8% and the “Systolic blood pressure: patients with a significant increase” value is 16.1%. Moreover, in the data set on alcoholics [2] (setting [14]), the “Systolic blood pressure: patients with a significant reduction” value stood at 28.6 and the “Systolic blood pressure: patients with no change” value is 55.4%. Further, in the data set with alcoholics [2] (after treatment (at the end of 18 hours), n=51, before treatment mean 86.27), the “Diastolic blood pressure mean after treatment” value is listed as 82.75. Further, the “Systolic blood pressure mean after treatment” value in the data set with alcoholics [2] (after treatment (at the end of 18 hours), n=51, before treatment mean 135.2) was 126.67. Moreover, the “Heart rate mean after treatment” value in the data set on alcoholics [2] (after treatment (at the end of 18 hours), n=53, before treatment mean 81.42, in beats/min (unit assumed)) was found to be 75.02. The “Patients who suffered headache during or immediately following administration” value in the data set on alcoholics [3] (disappeared after a few minutes or after metamizole magnesium) is given as “Approximately 10%”. Further, the “First administration of flumazenil interrupted and postponed to the following day” value in the data set on alcoholics [3] (of the 64 patients treated, increase in confusion, distal tremors or anxiety) was determined as 3 cases. For the same compound, in the data set with alcoholics [4] (Month 1, N 43), the “Follow-up: Dropouts” value is on record as 4.7%; the “Follow-up: Therapy and Disulfiram” value came to 95.3%; the “Follow-up: Therapy without Disulfiram” value came to 4.5%. In addition, in the data set with alcoholics [4] (Month 3, N 22), the “Follow-up: Dropouts” value is 9.1%; the “Follow-up: Therapy and Disulfiram” value was determined as 86.4%. In the data set with alcoholics [4] (Month 6, N 12), the “Follow-up: Dropouts” value was 25%; the “Follow-up: Therapy and Disulfiram” value is listed as 75%. For the same compound, in the data set with alcoholics [4] (Month 9, N 8), the “Follow-up: Dropouts” value is listed as 12.5%; the “Follow-up: Therapy and Disulfiram” value is listed as 75%; the “Follow-up: Therapy without Disulfiram” value turned out to be 12.5%. Also, in the data set with alcoholics [5], the “Psychophysiological functions such as appetite and sleep” value is on record as “regained very rapidly”; the “Spontaneous verbal report from the majority of the patients” value is “absence of anxiety and of the desire to drink alcohol”. For the same compound, in data set [6] (in other cases), the “Withdrawal symptoms after flumazenil” value is “the withdrawal symptoms disappeared but returned a few hours later”. Also, in data set [6] (in some cases, especially sweats and anxiety), the “Withdrawal symptoms after flumazenil” value is “immediate worsening of the withdrawal symptoms”. For the same compound, the “Anxiogenic withdrawal effects (social interaction test, elevated plus maze)” value in data set [7] (rat models of the ethanol withdrawal syndrome) is recorded as “reverse anxiogenic withdrawal effects”. The “Agitation and stereotyped behavior induced by withdrawal from long-term ethanol exposure” value in data set [7] (rats) was “prevent the agitation and stereotyped behavior”.

For `NCC1(CC(=O)O)CCCCC1` [Gabapentin], the Elimination half-life in [8] was 5 to 7 h.

Regarding `OCCOCCN1CCN(C(c2ccccc2)c2ccc(Cl)cc2)CC1` (centres unmarked) [Hydroxyzine], the “Time to effects after oral administration” value in data set [9] was 15 to 30 min.

The record behind these values is patent US7863267B2, “Use of selective chloride channel modulators to treat methamphetamine abuse” (priority 2003, dated 2011).
